How the values were obtained:
[1] = tested on: Mycobacterium tuberculosis H37Rv; test: Antimycobacterial susceptibility, BACTEC MGIT 960 SIRE; format: cell-based
[2] = tested on: normal cardiac myoblast H9c2 cells
Protocol: Briefly, 96 well microtiter plates were inoculated with the specified human cancer cell lines in RPMI 1640 medium containing 5% fetal bovine serum and 2 mM L-glutamine at the specified plating densities. The microtiter plates were incubated at 37°C, 5% CO2, and 100% relative humidity for 24 h. The test compounds were solubilized in DMSO at 400-fold the desired final maximum test concentration, diluted with complete medium containing gentamicin and added to the wells of the microtiter plates to achieve the final desired compound concentration, then incubated for an additional 48 h at the same incubation conditions. The media were removed, the cells were fixed then stained with sulforhodamine B and the unbound dye was removed by washing with acetic acid. The bound dye was resolubilized with trizma base and the absorbance at 515 nm was measured. Cells were stained with the WST-1 cell proliferation reagent instead of sulforhodamine B in some experiments and absorbance were measured at 440 nm. The three dose response parameters GI50, TGI and LC50 were calculated for each experimental compound as follows [48]: For values where Ti ≥ Tz the formula is [ (Ti-Tz) / (C-Tz)] x 100 For values where Ti < Tz the formula is [ (Ti-Tz) / Tz] x 100 Where Ti is the absorbance of the solubilized Sulforhodamine B (SRB) (representing the number of cells) of the five different concentrations of the compound used in the test, Tz is the absorbance of the SRB at time zero, and C is the absorbance of the SRB of the control growth.

[3] = tested on: MGH-U1R cell line; set-up: method as in PMID 25431950; conditions: cited from earlier work

## CC[C@@H](CO)NCCN[C@@H](CC)CO [Ethambutol, reference compound]
[1]; 5 μg/mL
  Effect on M. tuberculosis H37Rv: Inhibition

## COc1cccc2c1C(=O)c1c(O)c3c(c(O)c1C2=O)C[C@@](O)(C(=O)CO)C[C@@H]3O[C@H]1C[C@H](N)[C@H](O)[C@H](C)O1 [Doxorubicin, doxorubicin, reference compound]
[2]
  cytotoxicity towards normal cardiac myoblast H9c2 cells: potent dose dependent cytotoxic effect
[3]
  resistance of MGH-U1R cell line: 40 fold

## CO[C@H]1/C=C/O[C@@]2(C)Oc3c(C)c(O)c4c(O)c(c(/C=N/N5CCN(C)CC5)c(O)c4c3C2=O)NC(=O)/C(C)=C\C=C\[C@H](C)[C@H](O)[C@@H](C)[C@@H](O)[C@@H](C)[C@H](OC(C)=O)[C@@H]1C [Rifampin, reference compound]
[1]; 1 μg/mL
  Effect on M. tuberculosis H37Rv: Inhibition

## [H]/N=C(/N)N[C@H]1[C@H](O)[C@@H](O)[C@H](O[C@@H]2O[C@@H](C)[C@](O)(C=O)[C@H]2O[C@@H]2O[C@@H](CO)[C@H](O)[C@@H](O)[C@@H]2NC)[C@@H](N/C(N)=N\[H])[C@@H]1O [Streptomycin, reference compound]
[1]; 1 μg/mL
  Effect on M. tuberculosis H37Rv: Inhibition

## NNC(=O)c1ccncc1 [Isoniazid, reference compound]
[1]; 0.1 μg/mL
  Effect on M. tuberculosis H37Rv: Inhibition

Source: PMC4839570, “Novel Anthra[1,2-c][1,2,5]Thiadiazole-6,11-Diones as Promising Anticancer Lead Compounds: Biological Evaluation, Characterization & Molecular Targets Determination” (PLoS ONE, 2016)
